The text below walks through data of ChEMBL document CHEMBL5029143, “Discovery of New Potent Positive Allosteric Modulators of Dopamine D2 Receptors: Insights into the Bioisosteric Replacement of Proline to 3-Furoic Acid in the Melanostatin Neuropeptide” (J Med Chem, 2021).

Residues, ends and D or L forms follow the SMILES beside them.

By Emax is commonly meant the size of the effect at its maximum, as opposed to the concentration needed.

Series [1] is described as follows: Neurotoxicity in human SH-SY5Y cells assessed as reduction in cell viability at 200 uM measured after 48 hrs by MTT reduction assay (Rvb= 100 +/- 2.79%). In kind it is cell-based. The note with it: read-out: Activity. On the technique in general: Tetrazolium dyes change colour on reduction, which living cells bring about.
For series [2], the target named is D(2) dopamine receptor (Homo sapiens) (UniProt P14416). The note with it: CHO, filed as positive allosteric modulator, dose 0.01 nM, time 10.0 min.
Series [3] can be described thus: Neurotoxicity in human SH-SY5Y cells assessed as reduction in cell viability at 100 uM measured after 48 hrs by MTT reduction assay (Rvb= 100 +/- 2.79%). Format: cell-based. The note with it: read-out: Activity.
For the next series, the system named is SH-SY5Y. As to the kind of experiment: Cytotoxicity against human differentiated SH-SY5Y cells assessed as reduction in cell viability at 100 uM measured after 48 hrs by phase contrast microscopic analysis. In kind it is cell-based.

Chain of D(2) dopamine receptor (Homo sapiens) (P14416 whole entry): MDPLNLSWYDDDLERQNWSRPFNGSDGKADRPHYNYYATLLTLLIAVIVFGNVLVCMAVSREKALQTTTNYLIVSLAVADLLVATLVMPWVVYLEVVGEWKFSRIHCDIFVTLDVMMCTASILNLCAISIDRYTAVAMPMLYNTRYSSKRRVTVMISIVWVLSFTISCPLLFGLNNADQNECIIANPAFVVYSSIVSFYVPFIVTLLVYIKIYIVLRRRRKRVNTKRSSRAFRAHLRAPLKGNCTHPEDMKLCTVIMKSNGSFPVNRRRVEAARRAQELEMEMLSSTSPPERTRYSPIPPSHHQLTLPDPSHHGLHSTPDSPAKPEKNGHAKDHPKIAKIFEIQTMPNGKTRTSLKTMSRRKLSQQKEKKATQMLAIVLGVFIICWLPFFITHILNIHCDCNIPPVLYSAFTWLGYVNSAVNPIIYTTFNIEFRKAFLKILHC

Take `CC(C)C[C@H](NC(=O)c1ccoc1)C(=O)NCC(N)=O`: in series [1], the viability at 48 h, 200 µM stood at 86%. `CC(C)C[C@H](NC(=O)[C@@H]1CCCN1)C(=O)NCC(N)=O` (H-Pro-Leu-Gly-NH2) displayed an Emax in series [2] of 93.6%.

On to `NCCc1ccc(O)c(O)c1` [DOPAMINE], for which the viability at 48 h, 200 µM in series [1] was 66.4%. The viability at 48 h, 100 µM in series [3] amounted to 96.9%. Turning to `NCCc1cc(O)c(O)cc1O` [OXIDOPAMINE], the viability at 48 h, 200 µM in series [1] came out at 4.06%. The viability at 48 h, 100 µM in series [3] was 48.6%. Besides, the Activity result in the series with SH-SY5Y is given as “Toxic”.
